Reference: patent US9115165B2, “Tetracyclic anthraquinone antibiotic derivatives with high activity, process for preparing the same and use thereof” (Tianjin Hemay Bio-Tech Co., Ltd., priority 2008, dated 2015)
Converted amounts (≈) assume the structure as drawn. Read-outs that look alike come from different tables or passages of the source.

Tests used:
Lovo cells = experiment: Cytotoxicity assay (MTS/MTT), growth inhibition of Lovo cells; format: cell-based, human; settings: concentration of 1 μM
Protocol: LOVO: human colon cancer cell strains;
(§1) Cells were seeded into RPMI 1640 cell culture solution containing 10% fetal bovine serum (100 ku/L of penicillin and 100 ku/L of streptomycin were supplemented). The culture dish was placed in a cell incubator containing 5% CO2 at 37° C. The culture solution was changed once every 2-3 days. Cells were digested with 0.25% trypsin liquid, passaged and collected.
(§2) Cells during the logarithmic growth phase were formulated into a cell suspension having a desired concentration with RPMI 1640 cell culture solution containing 10% fetal bovine serum. The cell suspension was added onto 96 well cell culture plate at 3000-5000 per well (100 μl). After incubating for 24 hours, 100 μl of the test substances with different concentration was added per well. There were four parallel wells for each concentration in this plate. After incubating for 72 to 120 hours, the supernatant was discarded. To each well was added 100 μl of new formulated 0.5 mg/ml MTT serum-free culture solution. After incubating for 4 hours at 37° C., the supernatant was discarded. Formazane was dissolved with 200 μl DMSO. After slightly oscillating for 15 min, absorbance values (OD value) at the detective wavelength of 570 nm and the reference wavelength of 450 nm were determined with enzyme labeling instrument.
(§3) Data was represented by x±s. The inhibition rate=(OD value of the control group−OD value of the administration group)/OD value of the control group×100%. The maximum inhibition rate Imax and the half effective concentration (IC50) represent the anticancer effects. Figures were drawn with MicroCal Origin software. The inhibition curve of the test substance to the growth of tumor cells was fitted by Four Parameters Logistic Program of the software. The half effective concentration (IC50: μg/ml) for inhibiting the proliferation of tumor cells was calculated.
(§4) The exposure concentrations of the test substance were 0.001 μg/ml, 0.003 μg/ml, 0.009 μg/ml, 0.027 μg/ml, 0.082 μg/ml, 0.247 μg/ml, 0.741 μg/ml, 2.222 μg/ml, 6.667 μg/ml and 20 μg/ml. The exposure concentrations of doxorubicin (positive drug) were 1.25 μg/ml, 5 μg/ml, 20 μg/ml. In a 96-well plate, 3000-5000 cells were inoculated in each well and there were four parallel wells for each concentration. Table 1 lists the growth inhibition rate of the compounds against Lovo cells at concentration of 1 μM. Table 3 lists the inhibition rate of the compounds against the hyperplasia of MCF-7 human breast cancer cells at various concentrations.

[1] = test system: MCF-7 human breast cancer cells; experiment: Cytotoxicity assay (MTS/MTT), MCF-7 cells; format: cell-based; settings: for EC50: read-out: Half-Inhibitory Concentration of Cells Growth (EC50), MCF-7 cell
Protocol: MCF-7: human breast cancer cell strains;
as §1, §2, §3, §4

HCT-8 cell = experiment: Cytotoxicity assay (MTS/MTT), HCT-8 cells; format: cell-based, human; settings: read-out: Half-Inhibitory Concentration of Cells Growth (EC50), HCT-8 cell
Protocol: HCT-8: human colon cancer cell strains;
as §1, §2, §3, §4

HEPG-2 = experiment: Cytotoxicity assay (MTS/MTT), HEPG-2 cells; format: cell-based, human; settings: read-out: Half-Inhibitory Concentration of Cells Growth (EC50), HEPG-2
Protocol: HEPG-2: human liver cancer cell strains;
as §1, §2, §3, §4

A549 cell = experiment: Cytotoxicity assay (MTS/MTT), A549 cells; format: cell-based, human; settings: read-out: Half-Inhibitory Concentration of Cells Growth (EC50), A549 cell
Protocol: A549: human lung cancer cell strains;
as §1, §2, §3, §4

Kunming white mice [2] = experiment: In vivo MTD test in mice; settings: for Abnormality on the body surface / Change of body weight / Mortality rate: tail vein injection
Protocol: Experiment purpose: preliminary investigation on in vivo toxicity of the compound in Example 1 in mice
Experiment animal: Kunming white mice 20±2 g, purchased from the animal housing in Institute of Radiation Medicine, Chinese Academy of Medical Sciences. Animal license No.: SCXK(JIN)2005-0001.
Preparation of drug solution: After the drug was vortexed to dissolve with 0.5% (V/V) of DMSO, 5% (V/V) of RH40 (ethoxylated hydrogenated castor oil) was added. After mixing with vortex, the volume was determined with normal saline.
(1) Single administration: Nine healthy Kunming male white mice, of which the body weights are 20±2 g, were divided into three groups: 2 mice belong to the control group; 6 mice belong to 20 mg/kg group; 1 mouse belongs to 30 mg/kg group. 20 mg/kg and 30 mg/kg of the compound in Example 1 were administrated once via tail vein injection to the mice in the administration group. The same volume of a solvent was administrated as control to the mice in the control group. After administration, conditions such as action, reflex, locomotor activity and the like of the mice were observed within one hour. Subsequently, the body weights of the mice were recorded every day. Having observed for 14 days after drug withdrawal, the mice were anatomized to observe whether their main organs have an obvious abnormality.
(2) Multiple administrations: Twelve healthy Kunming white mice including six male mice and six female mice, of which the body weights are 20±2 g, were divided into two groups: […]. 10 mg/kg of the test drug was administrated once every three days via tail vein injection to the mice in the administration group. The same volume of a solvent was administrated as the control to the mice in the control group. The mice in each group were administrated five times. After each administration, conditions such as action, reflex, locomotor activity and the like of the mice were observed within one hour. The body weights of mice were recorded every day. Having been fed normally for one week after drug withdrawal, the mice were anatomized to observe whether their main organs have an obvious abnormality.

Kunming white mice [3] = settings: reference value given in the conclusion; cited from earlier work
[4] = folds of doxorubicin; cited from earlier work
transplanted tumor = transplanted tumor in mice; cited from earlier work
[5] = MCF-7, compound concentration 0.001 μg/ml
[6] = MCF-7, compound concentration 0.003 μg/ml
[7] = MCF-7, compound concentration 0.009 μg/ml
[8] = MCF-7, compound concentration 0.027 μg/ml
[9] = MCF-7, compound concentration 0.082 μg/ml
[10] = MCF-7, compound concentration 0.247 μg/ml
[11] = MCF-7, compound concentration 0.741 μg/ml
[12] = MCF-7, compound concentration 2.222 μg/ml
[13] = MCF-7, compound concentration 6.667 μg/ml
[14] = MCF-7, compound concentration 20 μg/ml
[15] = multiple administrations, 10 mg/kg once every three days, five times
[16] = single administration, 20 mg/kg and 30 mg/kg

## COc1cccc2c1C(=O)c1c(O)c3c(c(O)c1C2=O)C[C@@](O)(C(=O)CO)C[C@@H]3O[C@H]1C[C@H](n2cccc2)[C@H](O)[C@H](C)O1 [Example 1, 3′-pyrrolyldoxorubicin]
Lovo cells; 1 µM
  Growth Inhibition Rate (%): 80.62%
[1]; [5]
  A570 nm-OD Values: 1.629 ± 0.257
  Inhibition Rate (%): 4.27%
[1]; [6]
  A570 nm-OD Values: 1.744 ± 0.176
  Inhibition Rate (%): −2.49%
[1]; [7]
  A570 nm-OD Values: 1.443 ± 0.079
  Inhibition Rate (%): 15.17%
[1]; [8]
  A570 nm-OD Values: 1.238 ± 0.072
  Inhibition Rate (%): 27.22%
[1]; [9]
  A570 nm-OD Values: 0.883 ± 0.041
  Inhibition Rate (%): 48.09%
[1]; [10]
  A570 nm-OD Values: 0.703 ± 0.058
  Inhibition Rate (%): 58.68%
[1]; [11]
  A570 nm-OD Values: 0.461 ± 0.026
  Inhibition Rate (%): 72.89%
[1]; [12]
  A570 nm-OD Values: 0.302 ± 0.030
  Inhibition Rate (%): 82.26%
[1]; [13]
  A570 nm-OD Values: 0.320 ± 0.030
  Inhibition Rate (%): 81.18%
[1]; [14]
  A570 nm-OD Values: 0.289 ± 0.019
  Inhibition Rate (%): 83.03%
[1]; MCF-7 cell
  EC50: 210 nM
[1]; MCF-7 human breast cancer cells
  Imax (maximum inhibition rate): Imax = 83.03%
[1]; MCF-7 human breast cancer cells, fitted inhibition curve
  IC50: 0.06023 ± 0.01528 µg/mL (≈ 0.101 µM)
HCT-8 cell; HCT-8 cell
  EC50: 490 nM
HEPG-2; HEPG-2
  EC50: 810 nM
A549 cell; A549 cell
  EC50: 61 nM
Kunming white mice [2]; mice, compared with doxorubicin MTD 8-12 mg/kg
  Maximal tolerance dose (MTD) relative to doxorubicin: at least more than five folds higher than that of doxorubicin
Kunming white mice [2]; [15]
  Abnormality on the body surface: no obvious abnormality on the body surface was observed
  Change of body weight: The body weight of each mouse increased slowly after administration
  Mortality rate: Death was not found
Kunming white mice [2]; [16]
  Abnormality on the body surface: no obvious abnormality on the body surface was observed
  Change of body weight: The body weight of each mouse increased after administration
Kunming white mice [2]; single administration, 20 mg/kg and 30 mg/kg, observed 14 days
  Mortality rate: Death was not found

## COc1cccc2c1C(=O)c1c(O)c3c(c(O)c1C2=O)CC(O)(C(=O)COC(=O)CCC(=O)O)CC3OC1CC(n2cccc2)C(O)C(C)O1 (stereo not shown) [Example 13, 3′-pyrrolyldoxorubicin-14-oxo-hydrogen succinate]
Lovo cells
  Growth Inhibition Rate (%): 76.05%
[1]; MCF-7 cell
  EC50: 930 nM
HCT-8 cell; HCT-8 cell
  EC50: 1870 nM
HEPG-2; HEPG-2
  EC50: 150 nM
A549 cell; A549 cell
  EC50: 2360 nM

## 3′-pyrrolyl-esorubicin [Example 4]
Lovo cells
  Growth Inhibition Rate (%): 40.71%

## COc1cccc2c1C(=O)c1c(O)c3c(c(O)c1C2=O)C[C@@](O)(C(=O)CO)C[C@@H]3O[C@H]1C[C@H](N)[C@H](O)[C@H](C)O1 [Doxorubicin, doxorubicin, reference compound]
Lovo cells; Homo sapiens, read-out: Growth Inhibition Rate (%)
  inhibition at 1 µM: 50.4%
[1]; Homo sapiens, MCF7
  EC50: 1200 nM
HCT-8 cell; Homo sapiens, HCT-8
  EC50: 900 nM
HEPG-2; Homo sapiens, HepG2
  EC50: 2000 nM
A549 cell; Homo sapiens, A549
  EC50: 660 nM
Kunming white mice [3]
  Maximal tolerance dose (MTD): 8 to 12 mg/kg

## COc1cccc2c1C(=O)c1c(O)c3c(c(O)c1C2=O)C[C@@](O)(C(=O)CO)C[C@@H]3O[C@H]1C[C@H](N2C=CCC2)[C@H](O)[C@H](C)O1 [AN-201, 2-pyrrolinyl-doxorubicin]
[4]
  Activity in the cellular level relative to doxorubicin: 300-1000 folds
Transplanted tumor
  Anticancer activity at the maximal tolerance dose: the anticancer activity was not observed at the maximal tolerance dose

## 3′-pyrrolyl-5-iminodaunomycin [Example 2]
Lovo cells
  Growth Inhibition Rate (%): 74.0%

## COc1cccc2c1C(=O)c1c(O)c3c(c(O)c1C2=O)CC(O)(C(=O)CO)CC3OC1CC(N2C(=O)CCC2=O)C(O)C(C)O1 (stereo not shown) [Example 7, 3′-succinimidodoxorubicin]
Lovo cells
  Growth Inhibition Rate (%): 83.31%

## COc1cccc2c1C(=O)c1c(O)c3c(c(O)c1C2=O)CC(O)(C(=O)COC(=O)C(C)N)CC3OC1CC(n2cccc2)C(O)C(C)O1.Cl (stereo not shown) [Example 38, 3′-pyrrolyldoxorubicin-14-oxo-alaninate hydrochloride]
Lovo cells
  Growth Inhibition Rate (%): 78.44%
[1]; MCF-7 cell
  EC50: 870 nM
HCT-8 cell; HCT-8 cell
  EC50: 590 nM
HEPG-2; HEPG-2
  EC50: 1060 nM
A549 cell; A549 cell
  EC50: 230 nM

## 3′-pyrrolyl-idarubicin [Example 3]
Lovo cells
  Growth Inhibition Rate (%): 88.9%

## COc1cccc2c1C(=O)c1c(O)c3c(c(O)c1C2=O)C[C@@](O)(C(=O)CO)C[C@@H]3O[C@H]1C[C@H](n2cccc2)[C@H](O)[C@H](C)O1 [Example 5, 3′-pyrrolyldoxorubicin]
Lovo cells
  Growth Inhibition Rate (%): 67.25%

## 3′-pyrrolyl-4′-(pyran-2-yl)doxorubicin [Example 6]
Lovo cells
  Growth Inhibition Rate (%): 90.94%
